Test results from patent publication US20170027896A1, “METHODS AND COMPOSITIONS FOR THE TREATMENT OF VASCULAR MALFORMATION” (IFOM - FONDAZIONE ISTITUTO FIRC DI ONCOLOGIA MOLECOLARE, priority 2014, published 2017).
Entries after “also recorded” stand apart in the source; their conditions may differ.

Experiments:
[1] = system: vascular lesions in the brain of CCM3-ECKO mice; test: Assessment of lesion burden in brains of CCM3-ECKO mice; assay type: in vivo, mouse
From the text: The CCM3-flox/flox mice were generated at TaconicArtemis (Koeln, Germany). Two P-lox sequences were inserted that flank exons 4 and 5 of the murine CCM3 gene, to produce a loss-of-function mutation after excision by Ore recombinase. These CCM3-flox/flox mice were bred with Cdh5(PAC)-CreERT2 mice (Wang et al, 2010) for tamoxifen-inducible endothelial-cell-specific expression of Ore-recombinase and CCM3 gene recombination. The CCM3-flox/flox-Cdh5(PAC)-CreERT2 mice were further bred with BAT-gal mice (Maretto et al, 2003) to monitor the activation of b-catenin transcription signaling, and with Rosa 26-Enhanced […] Fluorescent Protein (EYFP) (Rosa26EYFP) mice (Srinivas et al, 2001) to monitor the expression of Ore-recombinase through the expression of EYFP. Tamoxifen (Sigma) was dissolved in corn oil and 10% ethanol (at 10 mg/ml), and then diluted 1:5 in corn oil before single intragastric administration to dpn 1-2 pups (35 mg/kg body weight), as described in^14. The control (wild-type) mice included CCM3-flox/flox-Cdh5(PAC)-CreERT2-BAT-gal mice treated with the vehicle used to dissolve the tamoxifen (corn oil plus 2% ethanol), and CCM3^+/+-Cdh5(PAC)-CreERT2-BAT-gal mice treated with tamoxifen.
Brains and eyes from mice pups were fixed in 3% paraformaldehyde immediately after dissection, and this fixing was continued overnight at 4° C. The retinas were dissected from the eyes just before staining as the whole mount. Fixed brains were embedded in 4% low-melting-point agarose and sectioned along the sagittal axis ([…]) using a vibratome (1000 Plus, The Vibratome Company, St. Louis, Mo., US).
For the classification and counting of lesions, entire brains from dpn 9 littermate pups were sectioned and immunostained for Pecam as described above and in the Methods. Sections were then examined under wide-field fluorescence microscopy (10× and 20×). Lesions were classified as described in^63 as mulberry (multiple cavernae, group of more than two contiguous cavernae), single caverna (single dilated vessel with maximal diameter accommodating more than 25 red blood cells), or telangiectases, tortuous small vessels with abnormally dilated lumen). The total numbers of lesions were calculated by summing all of the types of lesions.
As the sections were […], a correction was applied to the number of mulberry lesions, which can span two sections. Therefore, the number of mulberry lesions was divided by […]. The lesions were counted and classified independently by two observers who were blinded to the treatments.
The maximal diameter of the mulberry lesions and single cavernae was used for statistical comparison.

[2] = system: CCM3-knockout endothelial cell line; test: rtPCR of b-catenin target gene and progenitor/EndMT markers in CCM3-knockout endothelial cell line; assay type: cell-based, mouse; conditions: 48 h; 135 mM sulindac sulfide, 125 mM sulindac sulfone, 200 mM silibinin, 250 mM salinomycin
Experimental: In some experiments, endothelial cell lines from the lungs of CCM3-flox/flox mice (8-10 weeks old) were immortalized in culture through retroviral expression of polyoma middle T gene^60. […] These cells were then maintained in culture for up to 25 passages without detectable changes in the effects of this CCM3 ablation.
Drugs were added to confluent cells for 48 h before the indicated assays. The final concentrations used were: […] (all from Sigma-Aldrich). As all of these were dissolved in DMSO, control treatment (vehicle) was 0.1% DMSO final concentration, as for drug treatment.
RNA extraction was performed with RNeasy kits (74106; […]). The RNA (1 μg) was reverse transcribed with random hexamers (High Capacity cDNA Archive kits; Applied Biosystems). The cDNA was amplified with TaqMan gene expression assays (Applied Biosystems) using a 7900 HT thermocycler (ABI/Prism). For each sample, the expression levels were determined with the comparative threshold cycle (Ct) method, and normalized to the housekeeping genes encoding 18S and glyceraldehyde-3-phosphate dehydrogenase (GAPDH). For amplification, the following probes (Applied Biosystems) that have been validated to recognize the mouse transcripts in rtPCR were used: Axin2, Nkd1, Lef1, ccnd1, cMyc-Klf4, Ly6a, S100a4, Id1, Cdh2, Acta2, CD44. The probes to identify the CCM3 mRNA transcript were custom designed, as: forward, […] (SEQ ID No. 12); reverse, GCTCTGGCCGCTCAATCA (SEQ ID No. 13); reporter sequence, […] (SEQ ID No. 14).

[3] = system: CCM3-knockout brain endothelial cells in primary culture; test: Immunostaining of CCM3-knockout brain endothelial cells in primary culture; assay type: cell-based, mouse; conditions: 48 h
From the text: Endothelial cells from the CCM3-flox/flox mice (8-10 weeks old) were isolated from the brain as previously described^13. Recombination of the floxed CCM3 gene was induced by treating the cells at culture day 1 with the AdenoCre viral vector, as previously described^59. The control endothelial cells were an aliquot of the same endothelial cell preparation treated with AdenoGFP, instead of AdenoCre. The cells were then maintained in culture for up to a further 7 days before analysis, as described in the main text. Drug treatments were for 48 h before the processing of the cells. Drugs were added to confluent cells for 48 h before the indicated assays. The final concentrations used were: […] (all from Sigma-Aldrich). As all of these were dissolved in DMSO, control treatment (vehicle) was 0.1% DMSO final concentration, as for drug treatment. Cells cultured in vitro were fixed and stained as described previously^46. The following antibodies were used: […] (hamster; MAB1398Z, Millipore); anti-b-galactosidase (chicken; ab9361, Abcam); anti-VE-cadherin (rat monoclonal; 550548, BD Biosciences); anti-VE-cadherin (goat; sc-6458, Santa Cruz); anti-active-b-catenin (mouse monoclonal clone 8E7) dephosphorylated on […] and Thr41, Millipore); anti-total-b-catenin (mouse monoclonal; […] AF3158, R&D); anti-CD44 (rat; 553131, BD Biosciences); anti-ID1 (rabbit; sc-488, Santa Cruz); anti-aSMA (mouse monoclonal; […], Sigma); anti-GFP (rabbit; A-6455, Invitrogen); anti-podocalyxin (goat; AF1556, R&D); anti-phospho-histone H3 (rabbit; ab51776, Millipore); anti-CCM3 (rabbit; Eurogentec); anti-p-Smad1 (rabbit; 9516, Cell Signaling); anti-endomucin (rabbit; sc-65495, Santa Cruz); anti-α-tubulin (mouse monoclonal; T9026, Sigma).

In the case of CSc1ccc(/C=C2/C(C)=C(CC(=O)O)c3cc(F)ccc32)cc1 [sulindac sulfide, (Z)-5-Fluoro-2-methyl-1-[4-(methylthio)benzylidene]indene-3-acetic acid], the “diameters of cerebral vessels / mulberry budding ends (Pecam immunostaining of brain sections)” value ([1]; CCM3-ECKO pups at dpn9, treated from dpn2) is reported as “greatly reduces”, the “maximal diameter of single cavernae” value ([1]; CCM3-ECKO pups dpn 9, 30 mg/kg daily) is reported as “did not significantly reduce” and the mean maximal diameter of mulberry lesions (±SD) ([1]; CCM3-ECKO pups dpn 9, 30 mg/kg daily, vehicle 386±56 mm) is reported as 244 ± 38 µm. The “mean number (±SD) of vascular lesions per brain” value ([1]; CCM3-ECKO pups dpn 9, 30 mg/kg intragastrically daily, controls 166.8±22 (sulfide study), 153.5±28 (sulfone study)) was 72.6±9, the “inhibition of transcription of Axin2, Klf4 and S100a4 (rtPCR)” value [2] was “greatest inhibition; also recorded: most effective” and the “VE-cadherin at cell-cell contacts” value [3] was “more localized to cell-cell contacts”. For the same molecule, the “nuclear localization of active b-catenin” value [3] was “strongly inhibited” and the “overexpression of Klf4 and S100a4 proteins” value [3] was “inhibition; also recorded: inhibited”.
